Results taken from PMC12715762, “Discovery of VU6052254: A Novel, Potent M1 Positive Allosteric Modulator” (ACS Chemical Neuroscience, 2025).

Key:
[1] = result in words; cited from earlier work
[2] = brain to plasma ratio (rat); format: in vivo
Description: covered in Principles of Laboratory Animal Care (National Institutes of Health). All rats were fasted overnight prior to testing.
For determination of the brain over plasma ratio (Kp), compounds were formulated in 8% ethanol, 32% PEG400 and 60% DMSO (v/v/v) and administered as a single 0.2 mg/kg IV dose (1 mL/kg) to male, Sprague Dawley rats (n = 1) via injection into a surgically-implanted jugular vein catheter. At 15 min post dosing, blood sample was collected into chilled, K2EDTA anticoagulant-fortified tube and immediately placed on wet ice. The blood sample was then centrifuged (1700 rcf, 5 minutes, 4 °C) to obtain plasma sample. At the same post-administration time point, whole brain sample was obtained by rapid dissection, rinsed with PBS, and immediately frozen in individual tissue collection box (dry ice). All brain and plasma samples were stored at -80 °C until […]
Sample Analysis: Concentrations in plasma and brain homogenates were quantified by liquid chromatography tandem mass spectrometry (LC-MS/MS). Whole brains were homogenized in 3 mL of 70:30 IPA:water in a mini bead beater for 3 min, and centrifuged at 3,500 g for 5 min. 5 uL of the supernatant was diluted in 15 uL of blank plasma for quantification of the analytes. Plasma samples were centrifuged at 3,500 g for 5 min. […]
Plasma and brain tissue samples originating from in vivo studies were analyzed by electrospray ionization using an AB Sciex Q-TRAP 5500 (Foster City, CA) that was coupled to a Shimadzu LC-20AD pump (Columbia, MD) and a Leap Technologies CTC PAL auto-sampler (Carrboro, NC). […]
min, with an isocratic hold for 0.5 min, before transitioning to 10% B over 0.05 min. […] All data were analyzed using AB Sciex Analyst 1.5.1 software.
Brain plasma concentration ratio (Kp) was calculated by dividing brain concentration by plasma concentration for each animal. Unbound brain to unbound plasma concentration ratio (Kp,uu) is calculated using the following formula: Kp,uu = (Brain ng/g x brain fu)/(plasma ng/ml x plasma fu). […]

C57Bl/6 mice = assay: phenotypic seizure liability assay (Racine scale); format: in vivo, mouse
Description: min, with an isocratic hold for 0.5 min, before transitioning to 10% B over 0.05 min. The column was re-equilibrated (1 min) before the next sample injection. The total run time was 2.55 min, and the HPLC flow rate was 0.5 ml/min. The source temperature was set at 500 °C, and mass spectral analyses were performed using a Turbo-Ion spray source in positive ionization mode (5.0-kV spray voltage) and using multiple-reaction monitoring of transitions specific for the analytes. All data were analyzed using AB Sciex Analyst 1.5.1 software.
Brain plasma concentration ratio (Kp) was calculated by dividing brain concentration by plasma concentration for each animal. Unbound brain to unbound plasma concentration ratio (Kp,uu) is calculated using the following formula: Kp,uu = (Brain ng/g x brain fu)/(plasma ng/ml x plasma fu).
Pharmacokinetic profiles in rats following oral single escalating doses Single escalating oral dosing in Sprague-Dawley rats was performed at Frontage Laboratories according to their non-GLP Standard Operating Procedure and IACUC protocols. In short, compounds were formulated in 10% Tween 80 in water and dosed at 10 mg/kg. At different times, arterial blood was collected from a femoral artery catheter, and compound concentration was determined in plasma by LC-MS/MS following their non-GLP protocol. PK parameters were determined using Phoenix WinNonlin software (version 6.3). […]
Blood-brain barrier penetration was determined using MDR1-MDCK cell monolayers by Absorption Systems, following their protocol. […] Compounds concentration on either side of the monolayer was determined by LC-MS/MS and apparent permeability and efflux ratio were determined as described in Wang, Q. et al.1 […]
To evaluate induction of behavioral manifestation of seizure activity, C57Bl/6 mice received administration of vehicle or 100 mg/kg M1 PAM 5. […] Animals were monitored continuously and scored for behavioral manifestations of seizure activity at 5, 15, 30 min, and 1 h. Behavioral manifestations of seizures were scored using a modified Racine scoring system. […]

Histamine H3 = Histamine H3 (Homo sapiens, UniProt Q9Y5N1); assay: Eurofins radioligand binding
Chain of Histamine H3 (Q9Y5N1 whole entry): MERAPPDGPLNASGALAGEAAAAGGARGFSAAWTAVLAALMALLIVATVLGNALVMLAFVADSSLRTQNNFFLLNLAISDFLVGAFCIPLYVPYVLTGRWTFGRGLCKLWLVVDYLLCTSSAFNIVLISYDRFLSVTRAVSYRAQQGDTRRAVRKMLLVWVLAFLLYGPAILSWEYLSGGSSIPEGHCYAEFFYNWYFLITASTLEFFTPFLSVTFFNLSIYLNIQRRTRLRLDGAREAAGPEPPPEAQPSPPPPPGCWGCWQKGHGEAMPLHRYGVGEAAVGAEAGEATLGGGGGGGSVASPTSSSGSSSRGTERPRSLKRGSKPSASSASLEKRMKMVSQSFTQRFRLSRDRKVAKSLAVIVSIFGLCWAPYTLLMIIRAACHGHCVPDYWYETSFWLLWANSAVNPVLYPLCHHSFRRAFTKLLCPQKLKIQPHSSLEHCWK

Structure (SMILES) | cholinergic toxicity in Phase I SAD trial [1] | Kp ([2]; brain:plasma) | Kp at 15 min ([2]; male, Sprague Dawley, brain and plasma, intravenous, 0.2 mg/kg, brain:plasma) | Kp uu at 15 min ([2]; male, Sprague Dawley, brain and plasma, intravenous, 0.2 mg/kg, unbound brain:unbound plasma) | AEs in seizure liability assay (C57Bl/6 mice; 56.6 mg/kg IP, mice, result in words) | Racine scale scores (C57Bl/6 mice; 100 mg/kg IP, mice) | AEs in Racine score test (C57Bl/6 mice; 56.6 and 100 mg/kg, i.p., 360 min, male C57Bl/6 mice, result in words) | inhibition at 10 µM (Histamine H3) [%]
Cn1cc2c(-c3cc(F)c(CN4Cc5ncccc5C4=O)c(F)c3)cccc2n1 [compound 1, reference compound] | without any observed cholinergic toxicity | – | – | – | – | – | – | –
Cn1cc2c(-c3cc(F)c(CN4Cc5ncccc5C4=O)c(F)c3)ccc(C(C)(C)O)c2n1 [compound 7] | – | 1.08 | 1.07 | 1.27 | negligible AEs | less than 2 | minimal AEs at 60 min postadministration with a lack of AEs observed at 6 h | -11
